Measurements published in ChEMBL document CHEMBL1123483, “Inhibition of chicken liver dihydrofolate reductase by 5-(substituted benzyl)-2,4-diaminopyrimidines. A quantitative structure-activity relationship and graphics analysis” (J Med Chem, 1986).

Test: Partition coefficient (logD) (aqueous phase 0.1 N HCl)
Assay type: physicochemical
Settings: 0.1 N HCl (aqueous phase); read-out: logD

Point of comparison: `Nc1ncc(Cc2ccc3c(c2)OCO3)c(N)n1`, logD 1.52. Against it:
- COc1ccc(Cc2cnc(N)nc2N)cc1 — within 0.2 log units, 1.34
- Nc1ccc(Cc2cnc(N)nc2N)cc1 — lower, 0.26
- COc1cc(Cc2cnc(N)nc2N)cc(OC)c1 — within 0.2 log units, 1.6
- COCCOc1cccc(Cc2cnc(N)nc2N)c1 — lower, -1.33
- CCCCCCCCOc1cc(Cc2cnc(N)nc2N)ccc1OC — higher, 2.55
- CCc1cc(Cc2cnc(N)nc2N)cc(CC)c1CC — within 0.2 log units, 1.55
- C=C(C)c1c(OC)cc(Cc2cnc(N)nc2N)cc1OC — higher, 3.07
- CCOc1cc(Cc2cnc(N)nc2N)cc(OCC)c1 — higher, 2.52
- COc1cc(Cc2cnc(N)nc2N)cc(OC)c1N(C)C [ADITOPRIM] — within 0.2 log units, 1.51
- COc1cc(Cc2cnc(N)nc2N)cc(OC)c1Br [BRODIMOPRIM] — higher, 2.04
- COc1ccc(Cc2cnc(N)nc2N)cc1OC [DIAVERIDINE] — lower, 1
- COc1cc(Cc2cnc(N)nc2N)cc(OC)c1SC [METIOPRIM] — within 0.2 log units, 1.6
- COCCOc1c(OC)cc(Cc2cnc(N)nc2N)cc1OC [TETROXOPRIM] — lower, -1.81

Same assay, conditions: octanol/water

Molecule `COCCOc1ccc(Cc2cnc(N)nc2N)cc1OCCOC` has a logD of -1.89.
